Values after ≈ are worked out from the molar mass of the structure shown.
Assays:
Type in all cases: functional
Staphylococcus aureus [1] = test: Antimicrobial activity against Staphylococcus aureus ATCC 25923 after 18 hrs by broth microdilution method; conditions: ATCC 25923, 18 h
Staphylococcus aureus [2] = test: Antimicrobial activity against Staphylococcus aureus ATCC 6538 after 18 hrs by broth microdilution method; conditions: ATCC 6538, 18 h
[3] = tested on: Staphylococcus epidermidis; test: Antimicrobial activity against Staphylococcus epidermidis ATCC 12228 after 18 hrs by broth microdilution method; conditions: ATCC 12228, 18 h
Bacillus subtilis [4] = test: Antimicrobial activity against Bacillus subtilis ATCC […] after 18 hrs by broth microdilution method
Bacillus cereus [5] = test: Antimicrobial activity against Bacillus cereus ATCC 10876 after 18 hrs by broth microdilution method; conditions: ATCC 10876, 18 h
Micrococcus luteus [6] = test: Antimicrobial activity against Micrococcus luteus ATCC 10240 after 18 hrs by broth microdilution method; conditions: ATCC 10240, 18 h
Escherichia coli [7] = test: Antimicrobial activity against Escherichia coli ATCC 25922 after 18 hrs by broth microdilution method; conditions: ATCC 25922, 18 h
Klebsiella pneumoniae [8] = test: Antimicrobial activity against Klebsiella pneumoniae ATCC 13883 after 18 hrs by broth microdilution method; conditions: ATCC 13883, 18 h
Proteus mirabilis [9] = test: Antimicrobial activity against Proteus mirabilis ATCC 12453 after 18 hrs by broth microdilution method; conditions: ATCC 12453, 18 h, read-out: MIC
Staphylococcus aureus [10] = test: Antimicrobial activity against Staphylococcus aureus ATCC 25923 assessed as >99.9 % reduction in CFU after 18 hrs by broth microdilution method; conditions: ATCC 25923, 18 h
Staphylococcus aureus [11] = test: Antimicrobial activity against Staphylococcus aureus ATCC 6538 assessed as >99.9 % reduction in CFU after 18 hrs by broth microdilution method; conditions: ATCC 6538, 18 h
[12] = tested on: Staphylococcus epidermidis; test: Antimicrobial activity against Staphylococcus epidermidis ATCC 12228 assessed as >99.9 % reduction in CFU after 18 hrs by broth microdilution method; conditions: ATCC 12228, 18 h
Bacillus subtilis [13] = test: Antimicrobial activity against Bacillus subtilis ATCC […] assessed as >99.9 % reduction in CFU after 18 hrs by broth microdilution method
Bacillus cereus [14] = test: Antimicrobial activity against Bacillus cereus ATCC 10876 assessed as >99.9 % reduction in CFU after 18 hrs by broth microdilution method; conditions: ATCC 10876, 18 h
Micrococcus luteus [15] = test: Antimicrobial activity against Micrococcus luteus ATCC 10240 assessed as >99.9 % reduction in CFU after 18 hrs by broth microdilution method; conditions: ATCC 10240, 18 h
Escherichia coli [16] = test: Antimicrobial activity against Escherichia coli ATCC 25922 assessed as >99.9 % reduction in CFU after 18 hrs by broth microdilution method; conditions: ATCC 25922, 18 h
Klebsiella pneumoniae [17] = test: Antimicrobial activity against Klebsiella pneumoniae ATCC 13883 assessed as >99.9 % reduction in CFU after 18 hrs by broth microdilution method; conditions: ATCC 13883, 18 h, read-out: MBC
Proteus mirabilis [18] = test: Antimicrobial activity against Proteus mirabilis ATCC 12453 assessed as >99.9 % reduction in CFU after 18 hrs by broth microdilution method; conditions: ATCC 12453, 18 h, read-out: MBC

| MIC (Staphylococcus aureus [1]) | MIC (Staphylococcus aureus [2]) | MIC [3] | MIC (Bacillus subtilis [4]) | MIC (Bacillus cereus [5]) | MIC (Micrococcus luteus [6]) | MIC (Escherichia coli [7]) | MIC (Klebsiella pneumoniae [8]) | MIC (Proteus mirabilis [9]) | SMILES | MBC (Staphylococcus aureus [10]) | MBC (Staphylococcus aureus [11]) | MBC [12] | MBC (Bacillus subtilis [13]) | MBC (Bacillus cereus [14]) | MBC (Micrococcus luteus [15]) | MBC (Escherichia coli [16]) | MBC (Klebsiella pneumoniae [17]) | MBC (Proteus mirabilis [18]) |
| --- | --- | --- | --- | --- | --- | --- | --- | --- | --- | --- | --- | --- | --- | --- | --- | --- | --- | --- |
| 125 µg/mL (≈ 252 µM) | 250 µg/mL (≈ 503 µM) | 250 µg/mL (≈ 503 µM) | 125 µg/mL (≈ 252 µM) | 125 µg/mL (≈ 252 µM) | 125 µg/mL (≈ 252 µM) | > 1000 µg/mL | 1000 µg/mL (≈ 2010 µM) | > 1000 µg/mL | S=c1n(CN2CCCC2)nc(-c2cccc(Cl)c2)n1-c1ccc(I)cc1 | 1000 µg/mL (≈ 2010 µM) | 1000 µg/mL (≈ 2010 µM) | > 1000 µg/mL | 1000 µg/mL (≈ 2010 µM) | > 1000 µg/mL | > 1000 µg/mL | > 1000 µg/mL | > 1000 µg/mL | > 1000 µg/mL |
| 125 µg/mL (≈ 312 µM) | 250 µg/mL (≈ 624 µM) | 250 µg/mL (≈ 624 µM) | 250 µg/mL (≈ 624 µM) | 125 µg/mL (≈ 312 µM) | 125 µg/mL (≈ 312 µM) | 250 µg/mL (≈ 624 µM) | 250 µg/mL (≈ 624 µM) | 500 µg/mL (≈ 1250 µM) | COc1ccc(-n2c(-c3cccc(Cl)c3)nn(CN3CCCC3)c2=S)cc1 | 500 µg/mL (≈ 1250 µM) | 500 µg/mL (≈ 1250 µM) | 1000 µg/mL (≈ 2490 µM) | 500 µg/mL (≈ 1250 µM) | > 1000 µg/mL | 1000 µg/mL (≈ 2490 µM) | 500 µg/mL (≈ 1250 µM) | 500 µg/mL (≈ 1250 µM) | > 1000 µg/mL |
| 125 µg/mL (≈ 337 µM) | 125 µg/mL (≈ 337 µM) | 125 µg/mL (≈ 337 µM) | 125 µg/mL (≈ 337 µM) | 125 µg/mL (≈ 337 µM) | 125 µg/mL (≈ 337 µM) | 500 µg/mL (≈ 1350 µM) | 250 µg/mL (≈ 674 µM) | 500 µg/mL (≈ 1350 µM) | S=c1n(CN2CCCC2)nc(-c2cccc(Cl)c2)n1-c1ccccc1 | 500 µg/mL (≈ 1350 µM) | 500 µg/mL (≈ 1350 µM) | 1000 µg/mL (≈ 2700 µM) | 500 µg/mL (≈ 1350 µM) | > 1000 µg/mL | 1000 µg/mL (≈ 2700 µM) | 500 µg/mL (≈ 1350 µM) | 500 µg/mL (≈ 1350 µM) | > 1000 µg/mL |
| 31.2 µg/mL (≈ 81.2 µM) | 62.5 µg/mL (≈ 162 µM) | 125 µg/mL (≈ 325 µM) | 31.2 µg/mL (≈ 81.2 µM) | 125 µg/mL (≈ 325 µM) | 62.5 µg/mL (≈ 162 µM) | > 1000 µg/mL | > 1000 µg/mL | > 1000 µg/mL | Cc1ccc(-n2c(-c3cccc(Cl)c3)nn(CN3CCCC3)c2=S)cc1 | > 1000 µg/mL | > 1000 µg/mL | > 1000 µg/mL | 1000 µg/mL (≈ 2600 µM) | > 1000 µg/mL | > 1000 µg/mL | > 1000 µg/mL | > 1000 µg/mL | > 1000 µg/mL |

Reference: ChEMBL document CHEMBL1649393, “Synthesis and antimicrobial activity of thiosemicarbazides, s-triazoles and their Mannich bases bearing 3-chlorophenyl moiety” (2011)
